According to PMC4863226 (Molecular imaging, 2015):
Where a SMILES comes first, the peptide text is derived from it. Bridges are numbered along the chain shown (N, C = ends). The star is where a group is joined. DOTA = O=C(O)CN1CCN(CC(=O)O)CCN(CC(=O)*)CCN(CC(=O)O)CC1; NOTA = O=C(O)CN1CCN(CC(=O)O)CCN(CC(=O)*)CC1; X1 = O=[N+]([O-])c1cc([N+](=O)[O-])c(*)cc1F; PEG4 = NCCOCCOCCOCCOCCC(=O)O

Key:
in vivo = details: female, athymic Nu/Nu, mouse, 3.7 MBq, total radioactivity
[1] = tested on: HCT-116 tumor bearing mice; assay: Biodistribution; details: for Bone uptake / Brain uptake / Fat uptake / Heart uptake / Kidney uptake / L lg int (lower large intestine) uptake / Liver uptake / Lung uptake / Muscle uptake / Sm int (small intestine) uptake / Spleen uptake / Stomach uptake / U lg int (upper large intestine) uptake: HCT-116 tumor bearing mice; for Bone uptake / Brain uptake / Fat uptake / Heart uptake / Kidney uptake / L lg int (lower large intestine) uptake / Liver uptake / Lung uptake / Muscle uptake / Sm int (small intestine) uptake / Spleen uptake / Stomach uptake / U lg int (upper large intestine) uptake / Tumor uptake: gamma counter; for Bone uptake / Brain uptake / Fat uptake / Heart uptake / Kidney uptake / L lg int (lower large intestine) uptake / Liver uptake / Lung uptake / Muscle uptake / Sm int (small intestine) uptake / Spleen uptake / Stomach uptake / U lg int (upper large intestine) uptake / Tumor uptake / Tumor-to-blood ratio: mean ± SD; for Tumor uptake: HCT-116 tumor xenograft; for Tumor uptake / Tumor-to-blood ratio: mice; for Tumor-to-blood ratio: HCT-116 tumor xenografts
[2] = Sm int (small intestine) uptake

## CC[C@H](C)[C@@H]1NC(=O)[C@H](CC(=O)O)NC(=O)[C@@H](NC(=O)[C@H](CCC(=O)O)NC(=O)[C@H](CC(N)=O)NC(=O)CNC(=O)CNC(=O)CCOCCOCCOCCOCCNC(=O)CN2CCN(CC(=O)O)CCN(CC(=O)O)CC2)CSSC[C@@H](C(=O)N[C@@H](Cc2ccccc2)C(=O)N[C@@H](CCC(=O)O)C(=O)N[C@@H](CCCNC(=N)N)C(=O)N[C@@H](CCCCNc2cc(F)c([N+](=O)[O-])cc2[N+](=O)[O-])C(N)=O)NC(=O)[C@H](CCC(=O)O)NC(=O)[C@H](Cc2c[nH]c3ccccc23)NC(=O)[C@H](CCC(=O)O)NC(=O)[C@H](Cc2c[nH]c3ccccc23)NC(=O)[C@H](CCSC)NC(=O)[C@H](CCCNC(=N)N)NC(=O)[C@H](C)NC1=O [^55Co-NO2A-L19K-FDNB] ({NOTA-PEG4}-GGNECDIARMWEWECFERK(X1)-NH2; disulfide 5-15)
In vivo; Bone uptake
  tissue uptake at 24 h: 0.28 ± 0.04 %ID/g
  tissue uptake at 48 h: 0.14 ± 0.02 %ID/g
In vivo; Fat uptake
  tissue uptake at 24 h: 0.8 ± 0.4 %ID/g
  tissue uptake at 48 h: 0.3 ± 0.1 %ID/g
In vivo; Liver uptake
  tissue uptake at 24 h: 1 ± 0.1 %ID/g
  tissue uptake at 48 h: 0.44 ± 0.03 %ID/g
In vivo; Lung uptake
  tissue uptake at 24 h: 0.9 ± 0.1 %ID/g
  tissue uptake at 48 h: 0.46 ± 0.06 %ID/g
In vivo; [2]
  tissue uptake at 24 h: 0.26 ± 0.01 %ID/g
  tissue uptake at 48 h: 0.14 ± 0.04 %ID/g
In vivo; Tumor uptake
  tissue uptake at 24 h: 0.9 ± 0.1 %ID/g
  tissue uptake at 48 h: 0.49 ± 0.09 %ID/g

## [Cl][55Co][Cl] [^55CoCl2]
[1]; 2 hr p.i.
  Bone uptake: 1.3 ± 0.2 %ID/g
  Brain uptake: 0.31 ± 0.02 %ID/g
  Fat uptake: 1.5 ± 0.9 %ID/g
  Heart uptake: 4.8 ± 0.4 %ID/g
  Kidney uptake: 10.5 ± 1.4 %ID/g
  L lg int (lower large intestine) uptake: 1.9 ± 1.0 %ID/g
  Liver uptake: 15.7 ± 0.4 %ID/g
  Lung uptake: 4.0 ± 0.3 %ID/g
  Muscle uptake: 0.6 ± 0.1 %ID/g
  Sm int (small intestine) uptake: 3.6 ± 0.6 %ID/g
  Spleen uptake: 1.9 ± 0.4 %ID/g
  Stomach uptake: 1.1 ± 0.1 %ID/g
  U lg int (upper large intestine) uptake: 4.3 ± 0.8 %ID/g
  Tumor uptake: 2.8 ± 0.6 %ID/g
[1]; 2 hrs p.i.
  Tumor-to-blood ratio: 0.6 ± 0.1
[1]; 24 hr p.i., n=3
  Bone uptake: 0.8 ± 0.1 %ID/g
  Brain uptake: 0.17 ± 0.03 %ID/g
  Fat uptake: 0.7 ± 0.4 %ID/g
  Heart uptake: 2.8 ± 0.7 %ID/g
  Kidney uptake: 4.4 ± 0.4 %ID/g
  L lg int (lower large intestine) uptake: 2.2 ± 0.3 %ID/g
  Liver uptake: 6.2 ± 0.8 %ID/g
  Lung uptake: 1.9 ± 0.1 %ID/g
  Muscle uptake: 0.37 ± 0.08 %ID/g
  Sm int (small intestine) uptake: 1.1 ± 0.2 %ID/g
  Spleen uptake: 0.82 ± 0.05 %ID/g
  Stomach uptake: 1.0 ± 0.2 %ID/g
  U lg int (upper large intestine) uptake: 1.5 ± 0.1 %ID/g
  Tumor uptake: 1.6 ± 0.2 %ID/g
[1]; 48 hr p.i., n=3
  Bone uptake: 0.5 ± 0.1 %ID/g
  Brain uptake: 0.11 ± 0.01 %ID/g
  Fat uptake: 0.23 ± 0.05 %ID/g
  Heart uptake: 1.4 ± 0.2 %ID/g
  Kidney uptake: 1.9 ± 0.2 %ID/g
  L lg int (lower large intestine) uptake: 1.2 ± 0.2 %ID/g
  Liver uptake: 2.7 ± 0.7 %ID/g
  Lung uptake: 0.98 ± 0.09 %ID/g
  Muscle uptake: 0.17 ± 0.03 %ID/g
  Sm int (small intestine) uptake: 0.50 ± 0.04 %ID/g
  Spleen uptake: 0.46 ± 0.04 %ID/g
  Stomach uptake: 0.5 ± 0.1 %ID/g
  U lg int (upper large intestine) uptake: 0.7 ± 0.1 %ID/g
  Tumor uptake: 0.86 ± 0.08 %ID/g
[1]; 48 hrs p.i., P=0.006 vs 2 hrs
  Tumor-to-blood ratio: 1.9 ± 0.4
[1]; at 24 and 48 hrs p.i. after high uptake at 2 hrs p.i.
  Consecutive decrease in liver and kidney uptake: about 2 fold
[1]; from 2 to 48 hrs p.i.
  Increase of tumor-to-blood ratio: 3 fold

## CC[C@H](C)[C@@H]1NC(=O)[C@H](CC(=O)O)NC(=O)[C@@H](NC(=O)[C@H](CCC(=O)O)NC(=O)[C@H](CC(N)=O)NC(=O)CNC(=O)CNC(=O)CCOCCOCCOCCOCCNC(=O)CN2CCN(CC(=O)O)CCN(CC(=O)O)CCN(CC(=O)O)CC2)CSSC[C@@H](C(=O)N[C@@H](Cc2ccccc2)C(=O)N[C@@H](CCC(=O)O)C(=O)N[C@@H](CCCNC(=N)N)C(=O)N[C@@H](CCCCNc2cc(F)c([N+](=O)[O-])cc2[N+](=O)[O-])C(N)=O)NC(=O)[C@H](CCC(=O)O)NC(=O)[C@H](Cc2c[nH]c3ccccc23)NC(=O)[C@H](CCC(=O)O)NC(=O)[C@H](Cc2c[nH]c3ccccc23)NC(=O)[C@H](CCSC)NC(=O)[C@H](CCCNC(=N)N)NC(=O)[C@H](C)NC1=O [^55Co-DO3A-L19K-FDNB] ({DOTA-PEG4}-GGNECDIARMWEWECFERK(X1)-NH2; disulfide 5-15)
In vivo; Bone uptake
  tissue uptake at 24 h: 0.3 ± 0.04 %ID/g
  tissue uptake at 48 h: 0.26 ± 0.05 %ID/g
In vivo; Fat uptake
  tissue uptake at 24 h: 0.4 ± 0.1 %ID/g
  tissue uptake at 48 h: 0.3 ± 0.03 %ID/g
In vivo; Liver uptake
  tissue uptake at 24 h: 1.1 ± 0.2 %ID/g
  tissue uptake at 48 h: 0.7 ± 0.1 %ID/g
In vivo; Lung uptake
  tissue uptake at 24 h: 0.8 ± 0.1 %ID/g
  tissue uptake at 48 h: 0.56 ± 0.03 %ID/g
In vivo; [2]
  tissue uptake at 24 h: 0.31 ± 0.04 %ID/g
  tissue uptake at 48 h: 0.19 ± 0.03 %ID/g
In vivo; Tumor uptake
  tissue uptake at 24 h: 1.1 ± 0.2 %ID/g
  tissue uptake at 48 h: 0.71 ± 0.03 %ID/g
